Target: T1, ADAR1 (Homo sapiens, UniProt P55265)
T1 construct: endogenous in cells; host or cells: p110 KO A549 dual cells
T1 sequence (P55265 1-1226): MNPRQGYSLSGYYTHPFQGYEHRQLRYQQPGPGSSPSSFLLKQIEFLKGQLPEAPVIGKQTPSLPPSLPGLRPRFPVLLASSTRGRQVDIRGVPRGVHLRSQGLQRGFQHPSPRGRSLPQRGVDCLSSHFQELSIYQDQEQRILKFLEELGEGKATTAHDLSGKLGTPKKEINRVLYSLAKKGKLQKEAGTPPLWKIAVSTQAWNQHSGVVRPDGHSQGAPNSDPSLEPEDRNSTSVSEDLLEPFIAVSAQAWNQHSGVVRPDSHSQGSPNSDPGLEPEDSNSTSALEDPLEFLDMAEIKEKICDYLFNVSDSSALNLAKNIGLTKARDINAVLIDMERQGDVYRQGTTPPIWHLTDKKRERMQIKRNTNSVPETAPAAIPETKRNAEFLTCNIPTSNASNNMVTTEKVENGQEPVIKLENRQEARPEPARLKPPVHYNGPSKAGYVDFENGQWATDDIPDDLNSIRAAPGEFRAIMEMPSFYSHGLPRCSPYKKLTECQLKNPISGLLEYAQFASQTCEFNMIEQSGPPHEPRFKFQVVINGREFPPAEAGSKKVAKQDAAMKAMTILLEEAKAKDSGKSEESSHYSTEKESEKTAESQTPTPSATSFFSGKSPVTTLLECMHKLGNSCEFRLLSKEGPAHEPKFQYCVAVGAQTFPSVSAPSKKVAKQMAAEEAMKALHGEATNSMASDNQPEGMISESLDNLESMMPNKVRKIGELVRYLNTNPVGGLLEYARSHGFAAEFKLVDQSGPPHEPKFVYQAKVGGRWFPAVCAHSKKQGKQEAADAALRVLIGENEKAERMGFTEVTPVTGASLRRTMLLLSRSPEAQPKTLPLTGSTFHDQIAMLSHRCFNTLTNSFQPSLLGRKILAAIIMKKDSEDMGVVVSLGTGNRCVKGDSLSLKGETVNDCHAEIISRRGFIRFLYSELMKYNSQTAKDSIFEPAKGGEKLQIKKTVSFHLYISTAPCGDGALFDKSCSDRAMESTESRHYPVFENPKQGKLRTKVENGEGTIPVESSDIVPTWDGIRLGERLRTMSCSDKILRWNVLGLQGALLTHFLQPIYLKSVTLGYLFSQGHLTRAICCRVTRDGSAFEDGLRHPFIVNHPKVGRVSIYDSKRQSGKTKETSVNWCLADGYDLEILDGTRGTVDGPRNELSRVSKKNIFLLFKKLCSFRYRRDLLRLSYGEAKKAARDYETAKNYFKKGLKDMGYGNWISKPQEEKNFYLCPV
Assay: ADAR1 Inhibition Assay (IFN fold-induction, Quanti-Luc luminescence, p110 KO A549 dual cells)
Format: cell-based
Details: IFN fold-induction vs DMSO, 24 and 48 h
Protocol: An ADAR1 Inhibition Assay was used to determine the biological activity (EC50) of compounds disclosed herein. 100 μL of p110 KO A549 dual cell suspension in supplemented DMEM (20,000 cells per well) was added into a flat bottom 96 well plate. Next day, post media change, 180 μL of supplemented DMEM was added. 20 μL of test compound or positive control was added to the respective wells (Final concentration of DMSO is 1%). The plate was incubated for 24 and 48 hours at 37° C. in a 5% CO2 incubator. After 24 and 48 h, 20 μL of cell suspension was taken in black well plates and 50 μL of Quanti-Luc was added to each well and luminescence was measured using a microplate reader (Spectra Max). IFN fold-induction was plotted considering DMSO as control using the relative luminescence unit (RLU) values. (Fold induction: Sample RLU/Average DMSO RLU).

Row | EC50 [µM] | SMILES
1 | > 100 | CCOC(=O)c1cc(-c2ccccc2)sc1NC(=O)CNC(=O)c1cccc(S(=O)(=O)N(C)C)c1 [Compound 4]
2 | > 100 | CCOC(=O)c1cc(-c2ccccc2)sc1NC(=O)COC(=O)c1ccccc1 [Compound 5]
3 | > 100 | CCOC(=O)c1cc(-c2ccccc2)sc1NC(=O)CNC(=O)c1ccccc1 [Compound 6]
4 | > 100 | CCOC(=O)c1cc(-c2ccccc2)sc1NC(=O)CNc1cccc(S(N)(=O)=O)c1 [Compound 8]
5 | > 100 | COC(=O)c1nc(NC(=O)COC(=O)c2cccc(S(N)(=O)=O)c2)sc1Br [Compound 9]
6 | > 100 | CCOC(=O)c1cc(-c2ccccc2)sc1NC(=O)c1cccc(S(N)(=O)=O)c1 [Compound 10]
7 | > 100 | CCOC(=O)c1cc(-c2ccccc2)sc1NC(=O)CN [Compound 12]
8 | > 100 | CCOC(=O)c1cc(-c2ccccc2)sc1NC(=O)CNc1cccc(S(=O)(=O)N(C)C)c1 [Compound 15]
9 | > 100 | CCOC(=O)c1cc(-c2ccccc2)sc1NC(=O)CNS(=O)(=O)c1ccc(C)cc1 [Compound 27]
10 | > 100 | CCOC(=O)c1cc(-c2ccccc2)sc1NC(=O)CNC(=O)c1cccc(S(=O)(=O)N2CCOCC2)c1 [Compound 28]
11 | > 100 | CCOC(=O)c1cc(-c2ccccc2)sc1NC(=O)CNC(=O)c1cccc(S(=O)(=O)N2CCCC2)c1 [Compound 29]
12 | > 100 | NS(=O)(=O)c1cccc(NC(=O)CNC(=O)c2csc(-c3ccccc3)c2)c1 [Compound 30]
13 | > 100 | CCOC(=O)c1cc(-c2ccccc2)sc1NC(=O)CNC(=O)c1ccc(F)c(S(N)(=O)=O)c1 [Compound 31]
14 | > 100 | CCOC(=O)c1cc(-c2ccccc2)sc1NC(=O)COC(=O)c1cc(S(N)(=O)=O)ccc1F [Compound 37]
15 | > 100 | NS(=O)(=O)c1cccc(NC(=O)CNC(=O)c2ccc(-c3ccccc3)s2)c1 [Compound 40]
16 | > 100 | CCOC(=O)c1cc(-c2ccccc2)sc1NC(=O)CNC(=O)c1cccc(S(=O)(=O)NC(C)C)c1 [Compound 41]
17 | > 100 | CCOC(=O)c1cc(-c2ccccc2)sc1NC(=O)CNC(=O)c1cccc(S(=O)(=O)N2CCNCC2)c1 [Compound 47]
18 | > 100 | Cc1nc(-c2ccccc2)sc1C(=O)NCC(=O)Nc1cccc(S(N)(=O)=O)c1 [Compound 48]
19 | > 100 | NS(=O)(=O)c1cccc(C(=O)NCC(=O)Nc2nnc(-c3ccccc3)s2)c1 [Compound 49]
20 | > 100 | CCOC(=O)c1cc(-c2cc(F)cc(F)c2)sc1NC(=O)COC(=O)c1cccc(S(N)(=O)=O)c1 [Compound 52]
21 | > 100 | CCOC(=O)c1cc(-c2ccccc2)sc1NC(=O)CNC(=O)c1cc(S(N)(=O)=O)ccc1C [Compound 53]
22 | > 100 | CCOC(=O)c1c(NC(=O)COC(=O)c2cccc(S(N)(=O)=O)c2)sc(C)c1C [Compound 54]
23 | > 100 | CCOC(=O)c1cc(-c2ccccc2)sc1NC(=O)c1cccc(S(=O)(=O)NC)c1 [Compound 55]
24 | > 100 | COC(=O)c1nc(NC(=O)COC(=O)c2cccc(S(N)(=O)=O)c2)sc1-c1ccccc1 [Compound 57]
25 | > 100 | CCOC(=O)c1cc(-c2ccccc2)sc1NC(=O)COC(=O)c1cccc(S(=O)(=O)N2CCC(N)C2)c1 (stereo not drawn) [Compound 59]
26 | > 100 | CCOC(=O)c1cc(-c2ccccc2)sc1NC(=O)COC(=O)c1cccc(O)c1 [Compound 60]
27 | > 100 | CCOC(=O)c1cc(-c2ccccc2)sc1NC(=O)COC(=O)c1ccc(S(N)(=O)=O)cc1 [Compound 68]
28 | > 100 | CCOC(=O)c1cc(-c2ccccc2)sc1NC(=O)COC(=O)c1ccc(F)c(S(N)(=O)=O)c1 [Compound 69]
29 | > 100 | CCOC(=O)c1cc(-c2ccc(OC(F)(F)F)cc2)sc1NC(=O)COC(=O)c1cccc(S(N)(=O)=O)c1 [Compound 73]
30 | > 100 | CCOC(=O)c1cc(-c2ccccc2)sc1NC(=O)COC(=O)c1ccc(Cl)c(S(N)(=O)=O)c1 [Compound 74]

Further lines, the compound ahead of its results:

Row | SMILES | EC50 [µM]
31 | CCOC(=O)c1c(-c2ccccc2)csc1NC(=O)COC(=O)c1cccc(S(N)(=O)=O)c1 [Compound 3] | > 100
32 | CCOC(=O)c1cc(-c2ccccc2)sc1NC(=O)COC(=O)c1cccc(S(=O)(=O)N(C)C)c1 [Compound 7] | > 100
33 | CCOC(=O)c1cc(-c2ccccc2)sc1NC(=O)CNC(=O)c1cccc(S(=O)(=O)NC)c1 [Compound 11] | > 100
34 | CCOC(=O)c1cc(-c2ccccc2)sc1NC(=O)CNCCS(N)(=O)=O [Compound 14] | > 100
35 | CCOC(=O)c1cc(-c2ccccc2)sc1NC(=O)CNC(=O)c1ccc(Br)s1 [Compound 16] | > 100
36 | CCOC(=O)c1cc(-c2ccccc2)sc1NC(=O)CN(C)C [Compound 17] | > 100
37 | NS(=O)(=O)c1cccc(C(=O)NCC(=O)Nc2ccc(-c3ccccc3)s2)c1 [Compound 18] | > 100
38 | NS(=O)(=O)c1cccc(NC(=O)CNC(=O)c2ccc(-c3cccnc3)s2)c1 [Compound 19] | > 100
39 | NS(=O)(=O)c1cccc(NC(=O)CNC(=O)c2csc(-c3cccnc3)n2)c1 [Compound 20] | > 100
40 | CCOC(=O)c1cc(-c2ccccc2)sc1NC(=O)Nc1cccc(S(N)(=O)=O)c1 [Compound 21] | > 100
41 | COC(=O)c1ccsc1NC(=O)CNC(=O)c1cccc(S(N)(=O)=O)c1 [Compound 22] | > 100
42 | NS(=O)(=O)c1cccc(C(=O)NCC(=O)Nc2nc3ccccc3s2)c1 [Compound 23] | > 100
43 | CCOC(=O)c1cc(-c2ccccc2)sc1NC(=O)CNC(=O)c1ccc(S(N)(=O)=O)cc1 [Compound 24] | > 100
44 | NS(=O)(=O)c1cccc(NC(=O)c2csc(-c3ccccc3)c2)c1 [Compound 25] | > 100
45 | NS(=O)(=O)c1cccc(NC(=O)Cn2nnc(-c3ccccn3)n2)c1 [Compound 32] | > 100
46 | COC(=O)c1cc(-c2ccncc2)sc1NC(=O)c1cccc(S(N)(=O)=O)c1 [Compound 33] | > 100
47 | Cc1cccc(Cl)c1NC(=O)c1csc(NC(=O)c2cccc(S(N)(=O)=O)c2)n1 [Compound 35] | > 100
48 | CCOC(=O)c1cc(-c2ccccc2)sc1NC(=O)CNC(=O)c1cccc(S(=O)(=O)N2CCCCC2)c1 [Compound 36] | > 100
49 | COC(=O)c1cc(-c2ccncc2)sc1NC(=O)CNC(=O)c1cccc(S(N)(=O)=O)c1 [Compound 38] | > 100
50 | NS(=O)(=O)c1cccc(C(=O)NCC(=O)Nc2ccc3cc(Br)ccc3c2)c1 [Compound 43] | > 100
51 | CCOC(=O)c1cc(-c2ccccc2)sc1NC(=O)COC(=O)c1cccc(C(N)=O)c1 [Compound 50] | > 100
52 | CCOC(=O)c1cc(-c2ccccc2)sc1NC(=O)CNC(=O)c1cc(S(N)(=O)=O)ccc1F [Compound 56] | > 100
53 | CCOC(=O)c1cc(-c2ccccc2)sc1NC(=O)COC(=O)c1cccc(S(=O)(=O)N2CCOCC2)c1 [Compound 58] | > 100
54 | CCOC(=O)c1cc(-c2ccccc2)sc1NC(=O)CNS(=O)(=O)c1cccc(CO)c1 [Compound 61] | > 100
55 | CCOC(=O)c1cc(-c2ccccc2)sc1NC(=O)COC(=O)c1cccc(OC(F)(F)F)c1 [Compound 63] | > 100
56 | CCOC(=O)c1cc(-c2ccccc2)sc1NC(=O)COC(=O)c1cccc(C(C)=O)c1 [Compound 64] | ≤ 25
57 | CCOC(=O)c1cc(-c2ccccc2)sc1NC(=O)COC(=O)c1cccc(S(C)(=O)=O)c1 [Compound 65] | > 100
58 | CCOC(=O)c1cc(-c2ccc(F)cc2)sc1NC(=O)COC(=O)c1cccc(S(N)(=O)=O)c1 [Compound 75] | ≤ 25
59 | CCOC(=O)c1cc(-c2ccccc2)sc1NC(=O)COC(=O)c1cc(S(N)(=O)=O)ccc1C [Compound 76] | > 100
60 | CCOC(=O)c1c(NC(=O)COC(=O)c2cccc(S(N)(=O)=O)c2)sc2c1CCC2 [Compound 77] | > 100

Source: patent US20260200890A1, “ADAR1 INHIBITORS AND METHODS OF USING THE SAME” (AVAMMUNE THERAPEUTICS INC., priority 2022, published 2026)
